Test results as given in patent US5114967A, “Antibiotic alisamycin and its use” (Hoechst Aktiengesellschaft, priority 1990, dated 1992).
In brackets after ≈: the same amount, converted by molar mass.

How the values were obtained:
[1] = system: Candida albicans; experiment: agar-well method in Antibiotic Assay medium; details: read-out: Zone diam
[2] = system: gram-negative bacteria; experiment: antibacterial activity (general statement); assay type: cell-based
[3] = antiparasitic activity
[4] = system: Piriicularia oryzae; assay type: cell-based
[5] = system: Botrytis cinerea 47; experiment: agar-well method in Antibiotic Assay medium; details: Botrytis cinerea, 47, read-out: Zone diam
[6] = system: Staphylococcus aureus E88
[7] = solubility; assay type: physicochemical
[8] = system: Staphylococcus aureus E88; experiment: agar-well method in Antibiotic Assay medium; details: E88, read-out: Zone diam
[9] = system: Botrytis cinerea 47
[10] = system: Staphylococcus aureus 20424; experiment: agar-well method in Antibiotic Assay medium; details: Staphylococcus aureus, 20424, read-out: Zone diam
[11] = system: Escherichia coli 9632
[12] = system: Streptococcus faecalis 23241; details: Enterococcus faecalis
[13] = system: Staphylococcus aureus 20424
[14] = system: gram-positive bacteria; experiment: antibacterial activity (general statement); assay type: cell-based
[15] = system: Streptococcus faecalis UD8b; details: Enterococcus faecalis
[16] = antitumor activity
[17] = system: Staphylococcus aureus 209 p
[18] = system: Streptococcus faecalis Eder; experiment: agar-well method in Antibiotic Assay medium; details: Enterococcus faecalis, read-out: Zone diam
[19] = system: Piriicularia oryzae; experiment: agar-well method in Antibiotic Assay medium; assay type: cell-based
[20] = system: Streptococcus faecalis UD8b; experiment: agar-well method in Antibiotic Assay medium; details: Enterococcus faecalis, read-out: Zone diam
[21] = system: Streptococcus faecalis 23241; experiment: agar-well method in Antibiotic Assay medium; details: Enterococcus faecalis, 23241, read-out: Zone diam
[22] = system: Candida albicans
[23] = system: Staphylococcus aureus 209 p; experiment: agar-well method in Antibiotic Assay medium; details: read-out: Zone diam
[24] = system: Streptococcus faecalis Eder; details: Enterococcus faecalis

Question: With O=C(/C=C/C=C/C1CCCCC1)NC1=CC(O)(/C=C/C=C/C=C/C(=O)NC2=C(O)CCC2=O)C2OC2C1=O (centres unmarked) [Alisamycin] as the compound, how does the zone of inhibition at 500 µg/mL [1] read?
Answer: The zone of inhibition at 500 µg/mL was 10 mm.

Question: And the “activity against gram-negative bacteria” value [2]?
Answer: The value was “active”.

Question: And the antiparasitic activity [3]?
Answer: Its antiparasitic activity is “antiparasitic activities”.

Question: What about the MIC [4] of the same compound?
Answer: Its MIC is greater than 50 µg/mL.

Question: And the zone of inhibition at 500 µg/mL [5]?
Answer: Its zone of inhibition at 500 µg/mL is 20 mm.

Question: And the MIC [6]?
Answer: The MIC was 6.4 µg/mL (≈ 12.3 µM).

Question: And the solubility ([7]; acetonitrile)?
Answer: The solubility was “fairly soluble”.

Question: And the solubility ([7]; chloroform)?
Answer: The solubility was “fairly soluble”.

Question: And the solubility ([7]; dimethylsulfoxide)?
Answer: Its solubility is “very soluble”.

Question: And the solubility ([7]; ethanol)?
Answer: Its solubility is “poorly soluble”.

Question: And the solubility ([7]; ethyl acetate)?
Answer: The solubility was “fairly soluble”.

Question: What about the solubility ([7]; hexane) of the same compound?
Answer: Its solubility is “poorly soluble”.

Question: And the solubility ([7]; methanol)?
Answer: The solubility was “poorly soluble”.

Question: What about the solubility ([7]; methylene chloride) of the same compound?
Answer: Its solubility is “fairly soluble”.

Question: And the solubility ([7]; petroleum ether)?
Answer: The solubility was “poorly soluble”.

Question: And the solubility ([7]; propylene glycol)?
Answer: The solubility was “very soluble”.

Question: And the solubility ([7]; water)?
Answer: Its solubility is “poorly soluble”.

Question: What about the zone of inhibition at 32 µg/mL [8] of the same compound?
Answer: Its zone of inhibition at 32 µg/mL is 14 mm.

Question: What about the zone of inhibition at 500 µg/mL [8] of the same compound?
Answer: The zone of inhibition at 500 µg/mL was 27 mm.

Question: And the MIC [9]?
Answer: The MIC was greater than 50 µg/mL.

Question: What about the zone of inhibition at 32 µg/mL [10] of the same compound?
Answer: Its zone of inhibition at 32 µg/mL is 19 mm.

Question: What about the zone of inhibition at 500 µg/mL [10] of the same compound?
Answer: The zone of inhibition at 500 µg/mL was 25 mm.

Question: What about the MIC [11] of the same compound?
Answer: The MIC was greater than 50 µg/mL.

Question: What about the MIC [12] of the same compound?
Answer: Its MIC is 6.4 µg/mL (≈ 12.3 µM).

Question: And the MIC [13]?
Answer: The MIC was 3.2 µg/mL (≈ 6.15 µM).

Question: And the “activity against gram-positive bacteria” value [14]?
Answer: Its value is “active”.

Question: What about the MIC [15] of the same compound?
Answer: The MIC was greater than 50 µg/mL.

Question: What about the antitumor activity [16] of the same compound?
Answer: Its antitumor activity is “found to have antitumor”.

Question: And the MIC [17]?
Answer: The MIC was 1.6 µg/mL (≈ 3.07 µM).

Question: And the zone of inhibition at 32 µg/mL [18]?
Answer: Its zone of inhibition at 32 µg/mL is 16 mm.

Question: What about the zone of inhibition at 500 µg/mL [18] of the same compound?
Answer: Its zone of inhibition at 500 µg/mL is 23 mm.

Question: And the zone of inhibition at 32 µg/mL ([19]; 32 μg/ml)?
Answer: Its zone of inhibition at 32 µg/mL is 11 mm.

Question: And the zone of inhibition at 500 µg/mL ([19]; 500 μg/ml)?
Answer: The zone of inhibition at 500 µg/mL was 15 mm.

Question: What about the zone of inhibition at 32 µg/mL [20] of the same compound?
Answer: Its zone of inhibition at 32 µg/mL is 13 mm.

Question: And the zone of inhibition at 500 µg/mL [20]?
Answer: The zone of inhibition at 500 µg/mL was 16 mm.

Question: And the zone of inhibition at 32 µg/mL [21]?
Answer: The zone of inhibition at 32 µg/mL was 13 mm.

Question: And the zone of inhibition at 500 µg/mL [21]?
Answer: The zone of inhibition at 500 µg/mL was 22 mm.

Question: And the MIC [22]?
Answer: The MIC was 50 µg/mL (≈ 96 µM).

Question: And the zone of inhibition at 32 µg/mL [23]?
Answer: Its zone of inhibition at 32 µg/mL is 18.5 mm.

Question: And the zone of inhibition at 500 µg/mL [23]?
Answer: The zone of inhibition at 500 µg/mL was 26 mm.

Question: And the MIC [24]?
Answer: Its MIC is 6.4 µg/mL (≈ 12.3 µM).
